“And” between values parts separate entries of the source, which are not always exact repeats. Identical values can stand only once. Like-named read-outs stand apart in the source and are kept apart here.
Legend:
[1] = target: T1, Avena-derived HPPD SEQ ID NO: 1 (Avena sativa, UniProt A0ACD5V6K6, DEL109-109); assay: biochemical; type: binding; details: for koff / Off rate k1, individual experiments: direct or indirect radiochemical method
Description: On rates (governed by an association rate constant, kon) for the formation of the enzyme:inhibitor complexes, EI and off rates (governed by a dissociation rate constant, koff) were determined by methods known in the art and essentially as described in Hawkes et al. (2001) Proc. Bright. Crop. Prot. Conf. Weeds, 2:563-568 and in PCT Publication No. WO 02/46387).
Off rates (k1 in the scheme below) were derived from exchange rate studies where either the test inhibitor, I, or its exchange partner, J were radiolabelled and the data fit according to the scheme below. As noted in Hawkes et al. (2001) Proc. Bright. Crop. Prot. Conf.
After 30 minutes the exchange reaction was initiated with addition of 100 μl 1 mM ‘cold’ structure A with thorough mixing, and, immediately, 150 μl were withdrawn and loaded onto a NAP5 column, the protein exchanged into 50 mM BisTrisPropane buffer at pH 7.0 containing 0.1M KCl by rapid (<2 min) chromatography down a NAP5 G25 Sephadex® column (GE Healthcare Ltd, Buckinghamshire UK) and the amount of ^14C bound to protein measured by Optiphase scintillant using a Tri-Carb® 2900TR scintillation counter (Perkin Elmer, Wellesley, Mass.). Further aliquots were removed and measured in the same way at various times over minutes or hours as required in order to determine the exchange kinetics.
In this case, off rates were determined by preincubating ˜200 pmoles HPPD in reaction buffer (50 mM BTP pH 7, 25 mM Na ascorbate, 4 μg/ml bovine catalase, and 10% glycerol) containing ˜1.0 nmoles ^14C inhibitor at 25° C. in a total assay volume of 1.3 ml. After 30 minutes the reaction vessel was transferred to ice. After a further 10 minutes at ice temperature the exchange reaction was initiated by addition of 100 μl 1 mM Structure A, with thorough mixing, and 150 μl was withdrawn, loaded and quickly exchanged down a NAP5 column in a cold room at ˜5-8° C. in order to quantify the amount of radiolabel remaining bound to the protein at various time from the start of exchange at ice temperature.
Off rates (k1) of HPPD inhibitors that are not readily available radiolabelled or that present other measurement problems (for example high levels of background non-specific protein-binding which can be measured as radiolabel binding that persists in the presence of high concentrations of ‘cold’ inhibitor) may be measured indirectly. […] Exemplary methods are also described in PCT Publication No. WO 02/46387.

[2] = tested on: tobacco plants expressing wheat HPPD (A7WK82); assay: Glasshouse spray test on transgenic tobacco expressing wheat HPPD; type: in vivo; details: 14 DAT
Description: (§1) The CTP/HPPD encoding nucleotide sequence is edited by PCR (or initially synthesized) to include a 5′ XhoI site, a TMV omega enhancer (SEQ ID NO: 86) and a 3′ KpnI site (and to remove any such internal sites).
For example, a master plate of Agrobacterium tumefaciens containing the HPPD expressing binary vector is used to inoculate 10 ml LB (L broth) containing 100 mg/l rifampicin plus 50 mg/l kanamycin using a single bacterial colony. This is incubated overnight at 28° C. shaking at 200 rpm. This entire overnight culture is used to inoculate a 50 ml volume of LB containing the same antibiotics. Again this is cultured overnight at 28° C. shaking at 200 rpm. The Agrobacterium cells are pelleted by centrifuging at 3000 rpm for 15 minutes and then resuspended in MS (Murashige and Skoog) medium containing 30 g/l sucrose, pH 5.9 to an OD (600 nM)=0.6. This suspension is dispensed in 25 ml aliquots into petri dishes.
Clonally micro-propagated tobacco shoot cultures are used to excise young (not yet fully expanded) leaves. The mid rib and outer leaf margins are removed and discarded, and the remaining lamina cut into 1 cm squares. These are transferred to the Agrobacterium suspension for 20 minutes. […]
(§2) As shoots start to regenerate from the callusing leaf explants, these are removed to Shoot elongation medium (MS medium, 30 g/l sucrose, 8 g/l plantagar, 100 mg/l kanamycin, 200 mg/l timentin, 250 mg/l carbenicillin, pH 5.9). Stable transgenic plants readily root within 2 weeks. […]
(§3) Putative transgenic plants that are rooting and showing vigorous shoot growth on the medium incorporating kanamycin are analysed by PCR using primers that amplified a 500 bp fragment within the HPPD transgene. […]
(§4) A sub-set of about 30 plants were then selected on the basis of similar size from each population for spray testing. […] Plants were assessed for damage and scored at 14 days after treatment (DAT). […]

[3] = target: T1, Avena-derived HPPD SEQ ID NO: 1; assay: On rate (kon, k2) of enzyme:inhibitor complex formation; type: binding; details: read-out: On rate, activity based method
[4] = tested on: tobacco plants expressing Pseudomonas fluorescens HPPD (SEQ ID NO: 14); assay: Glasshouse spray test on transgenic tobacco expressing Pseudomonas HPPD; type: in vivo; details: 600 g/ha isoxaflutole, 14 DAT
Description: as §1
(§5) For example, a master plate of Agrobacterium tumefaciens containing the HPPD expressing binary vector is used to inoculate 10 ml LB (L broth) containing 100 mg/l rifampicin plus 50 mg/l kanamycin using a single bacterial colony. This is incubated overnight at 28° C. shaking at 200 rpm. This entire overnight culture is used to inoculate a 50 ml volume of LB containing the same antibiotics. Again this is cultured overnight at 28° C. shaking at 200 rpm. […]
as §2, §3, §4

[5] = tested on: tobacco plants expressing Arabidopsis HPPD (SEQ ID NO: 13); assay: Glasshouse spray test on transgenic tobacco expressing Arabidopsis HPPD; type: in vivo; details: 600 g/ha isoxaflutole, 14 DAT
Description: as §1, §5, §2, §3, §4

[6] = target: T1, Avena-derived HPPD SEQ ID NO: 1; assay: HPPD assay for KmHPP and kcat (HPLC/UV quantitation of homogentisate); type: biochemical; details: 25° C.
Description: The assay solution was transferred to Chromacol 03-CVG HPLC vials, sealed and the amount of homogentisate formed in a 40 μl aliquot determined by injection onto a reverse phase Aqua C18 5μ 75×4.6 mm HPLC column running 5.5% acetonitrile 0.1% TFA (Buffer A) at 1.5 ml/min. The column was eluted at 1.5 ml/minute using a 2 minute wash in buffer A, followed by a 2 minute wash in a 30/70 mixture of buffer A and 100% acetonitrile, and a further 3.5 minute wash in buffer A. The elution of homogentisate was monitored by UV at 292 nm and the amount formed in each reaction quantified by comparison with a standard calibration curve.
Km and Vmax values were determined (for example FIG. 1) using a non linear least squares fit using Grafit 4™ software (Erithacus Software, Middlesex, UK). Kcat values were determined by dividing the maximum rate, Vmax expressed in nmol/s by the number of nmoles of HPPD enzyme (based on the concentration determined by active-site titration).
For the alternative assumption of one active site per monomer then calculated kcat values should simply be correspondingly and systematically halved.

[7] = Kd of inhibitor over Km HPP of SEQ ID NO: 1
[8] = 25° C., read-out: Off rate k1 / koff (average or final estimate)
[9] = 25° C., individual measurements, read-out: Off rate k1, individual experiments
[10] = 25° C., individual measurements

CCOc1c(S(C)(=O)=O)ccc(C(=O)C2C(=O)CC(C)CC2=O)c1Cl (stereo not shown) [Compound A]
Kd/Km ratio [1, 7]: 0.000036

CS(=O)(=O)c1ccc(C(=O)C2C(=O)CCCC2=O)c([N+](=O)[O-])c1 [Compound B, mesotrione]
Events exhibiting < or equal to 10% damage ([2]; 600 g/ha mesotrione): Five out of 33

COCCOCc1nc(C(F)(F)F)ccc1C(=O)C1C(=O)C2CCC(C2)C1=O (stereo not shown) [Compound C]
Kd [1]: 7.1 nM
koff [1, 8]: 5.3e-05 s⁻¹
koff [1, 9]: 5.67e-05 s⁻¹
Kd/Km ratio [1, 7]: 0.0013

CS(=O)(=O)c1cc(C(F)(F)F)ccc1C(=O)C(C#N)C(=O)C1CC1 (stereo not shown) [Compound D]
kon [3]: 57000 M⁻¹ s⁻¹
Kd [1]: 1.36 nM
koff [1, 8]: 4.39e-05 s⁻¹
koff [1, 9]: 4.5e-05 s⁻¹
Kd/Km ratio [1, 7]: 0.00025

CS(=O)(=O)c1ccc(C(=O)C2C(=O)CCCC2=O)c(Cl)c1COCC(F)(F)F [Compound E]
Kd [1]: 0.228 nM
Kd/Km ratio [1]: 0.000042
Off rate k1, individual experiments [1, 10]: 2.02E-05 s^−1 and 3.00E-05 s^−1 and 3.67E-05 s^−1 and 3.17E-05 s^−1 (2×) and 2.67E-05 s^−1 (2×) and 3.33E- 05 s^−1
koff ([1]; read-out: Off rate k1, individual experiments, 25° C., individual measurements): 3.08e-05 s⁻¹

Cc1c(C(=O)C2C=NN(C)C2=O)ccc(S(C)(=O)=O)c1C1=NOCC1 (stereo not shown) [Compound F]
koff [1, 8]: 6.72e-05 s⁻¹
Off rate k1, individual experiments [1, 10]: 6e-05 s⁻¹ and 7e-05 s⁻¹ and 6.83e-05 s⁻¹
koff [1, 9]: 7.08e-05 s⁻¹

CS(=O)(=O)c1cc(C(F)(F)F)ccc1C(=O)c1cnoc1C1CC1 [isoxaflutole]
Bleaching ([2]; 600 g/ha isoxaflutole): Full and Green and Partly
Events showing less than 20% damage ([2]; 600 g/ha isoxaflutole): 3/33
Bleaching [4]: Full and Partly
Plants showing 50% damage or less [4]: 4/32
Bleaching [5]: Full

B1: SEQ ID NO: 1: the HPPD amino acid sequence of Avena sativa (protein, listed as Avena sativa)
chain: MPPTPATATGAAAAAVTPEHAARSFPRVVRVNPRSDRFPVLSFHHVELWCADAASAAGRFSFALGAPLAARSDLSTGNSAHASLLLRSGALAFLFTAPYAPPPQEAATAATASIPSFSADAARTFAAAHGLAVRSVGVRVADAAEAFRVSVAGGARPAFAPADLGHGFGLAEVELYGDVVLRFVSYPDETDLPFLPGFERVSSPGAVDYGLTRFDHVVGNVPEMAPVIDYMKGFLGFHEFAEFTAEDVGTTESGLNSVVLANNSEAVLLPLNEPVHGTKRRSQIQTYLEYHGGPGVQHIALASNDVLRTLREMRARTPMGGFEFMAPPQAKYYEGVRRIAGDVLSEEQIKECQELGVLVDRDDQGVLLQIFTKPVGDRPTFFLEMIQRIGCMEKDEVGQEYQKGGCGGFGKGNFSELFKSIEDYEKSLEVKQSVVAQKS
Km ([6]; pH 7.0): 5.38 µM
kcat average ([6]; one active-site per dimer assumed): 6.46 s⁻¹

Reference: US10053675B2, “Hydroxyphenylpyruvate dioxygenase polypeptides and methods of use” (SYNGENTA PARTICIPATIONS AG, priority 2009, dated 2018)
